Measurements: patent publication US20150037255A1, “PHTHALOCYANINE DYE-CONTAINING CONTRAST AGENT FOR PHOTOACOUSTIC IMAGING” (CANON KABUSHIKI KAISHA, priority 2013, published 2015)

Assay: Hydrophobicity evaluation of hydrophobic metal phthalocyanine dye by TLC (Rf value)
Type: physicochemical
Conditions: TLC glass plate RP-18, methanol containing 1% by weight lithium chloride; value of the dye used
Method: To compare the hydrophobicities of hydrophobic metal phthalocyanine dyes, evaluation was carried out using a thin-layer liquid chromatography (hereinafter sometimes abbreviated as TLC) method.
A TLC glass plate, RP-18 (from Merck & Co., Inc.), was used as a development plate, and a methanol solution containing 1% by weight of lithium chloride was used as a development solvent.
According to an established method, a dye solution was spotted on the starting line and the relative migration distance (hereinafter sometimes abbreviated as Rf value) was calculated based on the following equation. Rf value=the distance from the starting line to the center of the spot of the component/the distance from the starting line to the top of the solvent

Substance | Rf Value
Cobalt 2,9,16,23-tetra-tert-butyl-29H,31H-phthalocyanine | 0.08
Copper (II) 2,9,16,23-tetra-tert-butyl-29H,31H-phthalocyanine | 0.06
Zinc 2,9,16,23-tetra-tert-butyl-29H,31H-phthalocyanine | 0.10
tert-butyl silicon-[bis trimethylsiloxy]-phthalocyanine | 0.12
